# Reference: article PMC6920875, “Dithiocarbamate as a Valuable Scaffold for the Inhibition of Metallo-β-Lactmases” (Biomolecules, 2019)
# Assays:
# [1] = system: mouse fibroblast cells (L-929); experiment: Cytotoxicity assay (MTT); format: cell-based; conditions: concentration as high as 250 μM, 48 h
# Protocol: The cytotoxicity assays were performed to evaluate the toxicity of DC1, DC3, DC7 and DC9 in mouse fibroblast cells (L-929). The cells were seeded into 96-well plates at a cell density of 1.0 × 10^4 cells/well, in 100 μL of culture medium and maintained for 24 h. Then, the inhibitors with working concentrations (15.6, 31.25, 62.5, 125, 250, and 500 μM) were added to the 96-well plates and incubated for another 48 h. Three wells containing only cells were suspended in a mixture solution of 98 μL complete medium, as controls for cell viability without inhibitors. Three wells containing only the complete medium were used as blank controls. Following that, the medium was removed, and 100 μL of fresh culture medium and 10 μL MTT were added to each well. After incubation for 4 h, the trays were then vigorously shaken to solubilize the formed product, and the absorbance, at a wavelength of 490 nm, was read on a microplate reader and analyzed. All experiments were conducted in triplicate, and the data are expressed as mean ± standard deviation.
# The potential toxicity of dthiocarbamates DC1, DC3, DC7 and DC9 as representatives was assayed using the mouse fibroblast cells (L929) treated with different concentrations of inhibitors (15.625, 31.25, 62.5, 125, 250 and 500 μM).
# ImiS [2] = target: T1, ImiS (Aeromonas veronii, UniProt O31272); experiment: Inhibitor reversibility, activity recovery after rapid 100-fold dilution; format: biochemical, Aeromonas veronii bv. sobria; conditions: 5.0 μM enzyme, 0.7 μM inhibitor, 10 min pre-incubation
# T1 construct: made in house; host or cells: E. coli BL21 (DE3), plasmid pET-26b-ImiS
# Protocol: (§1) It can be observed in Figure 4d–f that the Q value remains almost unchanged in the presence or absence of inhibitors, likely because the formation of the enzyme-inhibitor complex (EI), that slowed down substrate hydrolysis, was reversible. […] We assayed the binding reversibility of DC1 to MβLs by measuring the enzymatic activity recovery after a large, rapid dilution of the MβL-DC1 complex.
# (§2) Determination of inhibitor reversibility
# (§3) NDM-1, ImiS and L1 were incubated at a concentration of 1.3, 5.0 and 5.8 μM, which is 100-fold over the concentration required for the activity assay, with DC1 at a concentration of 1.5, 0.7 and […]
# (§4) After 10 minutes pre-incubation, the recovery of enzymatic activity was determined after rapid and large dilution (100-fold) with the reaction […]
# (§5) Figure S2. Recovery of NDM-1 (a), ImiS (b) and L1 (c) activity after rapid dilution of the enzyme-inhibitor complex. The curve in black refers to the control sample pre-incubated and diluted in the absence of inhibitor. Curves in red refer to MβLs pre-incubated with DC1. […]
# ImiS [3] = target: T1, ImiS; experiment: biochemical; design: species or system Aeromonas veronii bv. sobria; conditions: read-out: inhibition against ImiS
# Protocol: The dithiocarbamates, MβLs and substrates samples were prepared with 30 mM Tris, pH 7.0. […] Enzymes and inhibitors were pre-incubated for 5 min before adding substrate. […] The IC50 values were nonlinearly fitted by plotting the average percentage inhibition against inhibitor concentration. The inhibition modes of DC1 to ImiS, NDM-1 and L1 were assayed by generating Lineweaver–Burk plots, and Ki values were obtained by fitting initial velocity versus substrate concentration at each inhibitor concentration, using SigmaPlot 12.0 (Systat Software Inc., San Jose, CA, USA).
# To evaluate the inhibitory activity of the dithiocarbamates, we over-expressed and purified MβLs NDM-1, VIM-2 and IMP-1 (B1), ImiS (B2), and L1 (B3) from three subclasses as previously reported. The inhibition experiments were performed with an Agilent UV8453 spectrometer. […] The concentrations of inhibitors were varied between 0 and 200 μM. The initial reaction rates were determined in the absence and presence of inhibitors in triplicate, and the generated average values were recorded.
# NDM-1 [4] = target: T2, NDM-1 (Klebsiella pneumoniae, UniProt C7C422); experiment: Time-dependence inhibition experiment, residual activity; format: biochemical; conditions: 13 nM NDM-1 incubated with inhibitor at its IC50 for 8 h
# T2 construct: made in house; host or cells: E. coli BL21 (DE3), plasmid pET26b-NDM-1
# L1 = target: T3, L1 (Stenotrophomonas maltophilia, UniProt P52700); experiment: Inhibitor reversibility, activity recovery after rapid 100-fold dilution; format: biochemical; conditions: 5.8 μM enzyme, 25.3 μM inhibitor, 10 min pre-incubation
# T3 construct: made in house; host or cells: E. coli BL21 (DE3), plasmid pET-26b-L1
# Protocol: as §1, §2, §3, §4, §5
# NDM-1 [5] = target: T2, NDM-1; experiment: as above; format: biochemical; conditions: 1.3 μM enzyme, 10 min pre-incubation
# Protocol: as §1, §2, §3, §4, §5
# T2 sequence (C7C422 29-270 limits assumed): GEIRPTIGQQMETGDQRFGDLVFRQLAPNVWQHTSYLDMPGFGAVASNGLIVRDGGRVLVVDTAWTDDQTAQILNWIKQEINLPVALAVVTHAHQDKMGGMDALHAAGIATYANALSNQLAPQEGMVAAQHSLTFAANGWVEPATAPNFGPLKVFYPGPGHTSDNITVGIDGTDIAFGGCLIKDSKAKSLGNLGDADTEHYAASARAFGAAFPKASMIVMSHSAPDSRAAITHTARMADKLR
# T1 sequence (O31272 28-255 limits assumed): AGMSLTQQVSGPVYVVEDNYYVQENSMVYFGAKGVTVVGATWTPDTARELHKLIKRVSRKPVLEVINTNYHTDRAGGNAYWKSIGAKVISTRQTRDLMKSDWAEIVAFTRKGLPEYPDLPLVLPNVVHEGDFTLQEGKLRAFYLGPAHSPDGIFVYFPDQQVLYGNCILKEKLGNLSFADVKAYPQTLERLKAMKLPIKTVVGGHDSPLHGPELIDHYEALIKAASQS
# T3 sequence (P52700 34-290): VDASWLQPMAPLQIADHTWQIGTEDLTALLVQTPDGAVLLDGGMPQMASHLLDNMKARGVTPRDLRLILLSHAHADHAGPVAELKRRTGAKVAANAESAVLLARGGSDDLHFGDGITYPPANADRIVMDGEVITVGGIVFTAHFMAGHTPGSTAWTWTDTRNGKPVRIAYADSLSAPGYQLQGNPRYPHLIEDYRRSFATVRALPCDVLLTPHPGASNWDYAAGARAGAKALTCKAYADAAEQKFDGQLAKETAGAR
structure (smiles),measurement,setting,value
O=C(NNC(=S)[S][K])c1ccccc1O [DC1],melting point,,264 to 265 °C
same,survival rate of L929 mouse cells,[1],higher than 80%
same,"reversibility, recovery of ImiS activity after rapid dilution",ImiS [2],reversible inhibitor
same,inhibition at 40 µM,ImiS [3],> 90%
same,time dependence of NDM-1 inhibition (residual activity),NDM-1 [4],no time-dependent inhibition
same,"reversibility, recovery of L1 activity after rapid dilution",L1,reversible inhibitor
same,"reversibility, recovery of NDM-1 activity after rapid dilution",NDM-1 [5],reversible inhibitor
